The text below walks through data of patent publication US20190382850A1, “METHOD FOR IDENTIFYING MITOCHONDRIAL DNA IN EXTRACELLULAR VESICLES AND TREATMENT OF MTDNA-RELATED DISORDERS AND CANCER” (Memorial Sloan-Kettering Cancer Center, priority 2017, published 2019).

Type in all cases: cell-based, human
One assay has as its system HTS cells. Briefly: OXPHOS potential (Seahorse) in FACS sorted tumor-derived cancer cells ± HT. Conditions: fulvestrant 10 μM, FIG. 2b. The text has this:
(§1) (Panel a) Representative tumor growth kinetics (BLI) of GFP+/Luciferase+MCF7 xenografts (n=10) treated with weekly fulvestrant once mammary fat pad tumors were established (after 3 months) which led to a period (4 months) of disease stability on HT (HTS) followed by exponential growth on HT (HTR). Representative H&E images of tumors and primary cultures from unsorted as well as FACS purified cancer cells (GFP+/Epcam+) and murine CAFs (GFP−/Epcam). Scale bar 20 μm. (Panel b) OXPHOS potential in tumor-derived cancer cells (panel a) was measured±HT (fulvestrant, 10 μM) by Seahorse. […] (Panel d) Percentage of metastatic lesions isolated by FACS from tumor-bearing mice (n=8/group) expressing murine mtDNA as determined by ND1 qPCR (2 ng of total DNA). Oxygen consumption rates (OCR) in murine-mtDNApos and ctrl HTR cells determined by Seahorse. (Panel e) Murine mitochondrial RNA expression (12 genes: ND1, ND2, COX2, ATP8, ATP6, COX3, ND3, ND4L, ND4, ND5, ND6, CytB) as fold change (logioscale) determined by qRT-PCR in HTR and HTS cells (panel a). […]
(§2) Mitochondrial respiration and OXPHOS potential in cells was assessed using Seahorse technology (www.seahorsebio.com)(Qian, W. & Van Houten, B. Alterations in bioenergetics due to changes in mitochondrial DNA copy number. Methods 51, 452-457 (2010)). […]

The subject of the next assay is HTR tumor-derived cells. The assay is described as above. Conditions: fulvestrant 10 μM, FIG. 2b.
From the text: as §1, §2

Assay [1] concerns luminal breast cancer cells and xenograft derived cells. Briefly: mtDNA level (qPCR copy number) in HT-induced dormant cells. Conditions: fulvestrant 10 μM for 2 months; several models of HT-induced dormancy; FIG. 5b. Here is the method:
(Panel b) mtDNA level (qPCR as fold change, naïve cells was used as reference) in luminal breast cancer cells and xenograft derived cells (multiple models)±HT (fulvestrant, 10 μM for 2 months). (Panel c) Dormant MCF7 cells (HTD) were isolated and treated with 3×10^9 mCAF-derived EVs (wt-mtDNA^hi or ρ0-mtDNA^lo) weekly ×4+HT (fulvestrant, 10 μM/weekly). After 40 days, mammosphere (MS) number and mitochondrial membrane potential (Δψ) by TMRE staining (red) in HTR/mito^hi EV and HTD/mito^lo EV educated cells was determined; scale bar 15 μm. […] (Panel f) Murine mitochondrial RNA expression (14 genes, as fold change -log10scale-) by qRT-PCR in HTR and HTS cells (panel e) (reference HTDorm cells; MCF7); the expression of nuclear encoded murine (non-mitochondrial RNA) transcripts was also determined (Cox4, β2M). […]
Generation of HTD cells was performed by treating ER+(GFP+) breast cancer cell lines (MCF7, ZR751, BT474) with HT (fulvestrant, 10 μM) for 2 months. […] Viable cell number was subsequently determined using trypan blue exclusion and cell counting using bright field microscopy HTD cells were then cultured in vitro or injected in vivo for further studies. […] Proliferation was determined by Cal cein AM technique (InVitrogen). […] After 40 days, mammosphere number (bright field microscopy) was determined after 40 days. […] Tumor growth was determined by BLI and after necropsy. […]
A general note: In qPCR the cycle at which signal appears reflects the starting amount.

Turning to `C[C@]12CC[C@@H]3c4ccc(O)cc4C[C@@H](CCCCCCCCC[S+]([O-])CCCC(F)(F)C(F)(F)F)[C@H]3[C@@H]1CC[C@@H]2O` (stereo partly drawn) [fulvestrant], the “OXPHOS potential of HTS cells” value in the assay on HTS cells was “inhibited”. Besides, in the assay on HTR tumor-derived cells, the “OXPHOS capacity of HTR tumor-derived cells” value is listed as “unaffected”. Besides, the “reduction of mtDNA level (copy number) vs control” value in assay [1] is 70-90%.
